pIC50: −log10 of the molar value. Read-outs that look alike come from different tables or passages of the source.
How the values were obtained:
A549 = assay: Cell-based assay, anti-proliferative activity (Cell Counting Kit-8, 72 hours); settings: Homo sapiens; for IC50: Cell Counting Kit-8, 72 hours, read-out: IC50 (μM) A549; for pIC50: read-out: A549 IC50
How it was run: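 Growth read-out after inhibitor treatment of plated cells; potency expressed as IC50.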

CCD-18Co = assay: as above; settings: Homo sapiens; CCD-18Co cells, Cell Counting Kit-8, 72 hours; read-out: IC50 (μM) CCD-18Co
How it was run: (§1)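 Seed cells in 96-well plates; add serially diluted inhibitor (1.5625 to 100 micro-M plus vehicle); incubate 72 hours; quantify viable growth by CCK-8 and calculate IC50.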

HCT-116 = assay: as above; settings: Homo sapiens; HCT-116 cells, Cell Counting Kit-8, 72 hours; read-out: IC50 (μM) HCT-116
How it was run: as §1

HFL1 = assay: as above; settings: Homo sapiens; HFL1 cells, Cell Counting Kit-8, 72 hours; read-out: IC50 (μM) HFL1
How it was run: as §1

SUV39H2 [1] = biological target: T1, SUV39H2 (Homo sapiens (Human), UniProt Q9H5I1); settings: read-out: IC50 (μM) Suv 39H2 assay; enzyme assay
SUV39H2 [2] = biological target: T1, SUV39H2; assay: biochemical
PC14 = assay: Cell-based assay, anti-proliferative activity (Cell Counting Kit-8, 72 hours); settings: Homo sapiens, PC-14; PC14 cells, Cell Counting Kit-8, 72 hours; read-out: IC50 (μM) PC14
How it was run: as §1

SUV39H2 [3] = biological target: T1, SUV39H2; assay: biochemical; format: biochemical; settings: 3H-SAM 100 nM, H3 Histone Peptide 350 nM, room temperature 3 hours
How it was run: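 Scintillation proximity format: reactions were halted with streptavidin SPA beads (50 μg/well final) after 3 h at room temperature with enzyme dosed by lot-specific activity.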

[4] = A549 cells, 72 hours exposure, Cell Counting Kit-8

T1 sequence (Q9H5I1 whole entry): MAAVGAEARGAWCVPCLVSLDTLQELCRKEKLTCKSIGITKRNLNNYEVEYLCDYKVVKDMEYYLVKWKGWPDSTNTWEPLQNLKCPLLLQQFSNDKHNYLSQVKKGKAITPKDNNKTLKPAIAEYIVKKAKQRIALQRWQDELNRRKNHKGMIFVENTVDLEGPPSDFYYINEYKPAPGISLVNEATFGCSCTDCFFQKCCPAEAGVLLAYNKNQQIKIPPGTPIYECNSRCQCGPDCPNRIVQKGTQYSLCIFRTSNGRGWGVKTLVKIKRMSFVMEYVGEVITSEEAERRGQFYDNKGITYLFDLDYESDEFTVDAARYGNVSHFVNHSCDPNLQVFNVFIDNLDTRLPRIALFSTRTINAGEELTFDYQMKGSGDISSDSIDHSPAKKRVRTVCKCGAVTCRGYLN

Row | Compound | pIC50 (SUV39H2 [3]) | pIC50 (A549; [4]) | other results
1 | COc1cc(OC)c(-c2cn3ccc(N4CCN(C(C)C)CC4)cc3n2)cc1Cl [Example 100, 2-(5-chloro-2,4-dimethoxyphenyl)-7-(4-isopropylpiperazin-1-yl)imidazo-[1,2-a]pyridine] |  |  | IC50 (A549; A549 cells): 5.6 µM; IC50 (CCD-18Co): 5.8 µM; IC50 (HCT-116): 3.2 µM; IC50 (HFL1): 3.2 µM; IC50 (SUV39H2 [1]): 0.0136 µM; pIC50 (SUV39H2 [2]): 7.81
2 | CCCS(=O)(=O)NC1CCN(c2ccn3cc(-c4cc(Cl)c(OC)cc4OC)nc3n2)CC1 [Example 193, N-(1-(2-(5-chloro-2,4-dimethoxyphenyl)imidazo[1,2-a]pyrimidin-7-yl)-piperidin-4-yl)propane-1-sulfonamide] |  |  | IC50 (A549; A549 cells): 10 µM; IC50 (CCD-18Co): 10 µM; IC50 (HCT-116): 10 µM; IC50 (HFL1): 10 µM; IC50 (PC14): 6.7 µM; pIC50 (SUV39H2 [2]): 7.49
3 | COc1cc(OC)c(-c2cn3ccc(N4CCN(c5nc(N)nc(NC(C)(C)C)n5)CC4)cc3n2)cc1Cl [Example 446, N^2-(tert-butyl)-6-(4-(2-(5-chloro-2,4-dimethoxyphenyl)imidazo[1,2-a]pyridin-7-yl)piperazin-1-yl)-1,3,5-triazine-2,4-diamine] | 7.01 | 6.37 | 
4 | COc1cc(OC)c(-c2cn3ccc(N[C@H]4C[C@H]5CC[C@@H](C4)N5CC4CCN(C(=O)OC(C)(C)C)CC4)cc3n2)cc1Cl [Example 447, tert-butyl 4-(((1R,3r,5S)-3-((2-(5-chloro-2,4-dimethoxyphenyl)imidazo[1,2-a]pyridin-7-yl)amino)-8-azabicyclo[3.2.1]octan-8-yl)methyl)piperidine-1-carboxylate] | 7.07 | 6.36 | 
5 | COc1cc(OC)c(-c2cn3ccc(N[C@H]4C[C@H]5CC[C@@H](C4)N5Cc4ccncc4)cc3n2)cc1Cl [Example 448, 2-(5-chloro-2,4-dimethoxyphenyl)-N-((1R,3r,5S)-8-(pyridin-4-ylmethyl)-8-azabicyclo[3.2.1]octan-3-yl)imidazo[1,2-a]pyridin-7-amine] | 7.65 | 6.47 | 
6 | COc1cc(OC)c(-c2cn3ccc(N4CCN(c5ncnc(N6CCOCC6)n5)CC4)cc3n2)cc1Cl [Example 449, 4-(4-(4-(2-(5-chloro-2,4-dimethoxyphenyl)imidazo[1,2-a]pyridin-7-yl)piperazin-1-yl)-1,3,5-triazin-2-yl)morpholine] | 7.76 |  | pIC50 (A549; A549, 72 h): 6.06
7 | COc1cc(OC)c(-c2cn3ccc(N4CCN(c5ncnc(N(C)C)n5)CC4)cc3n2)cc1Cl [Example 450, 4-(4-(2-(5-chloro-2,4-dimethoxyphenyl)imidazo[1,2-a]pyridin-7-yl)piperazin-1-yl)-N,N-dimethyl-1,3,5-triazin-2-amine] | 7.47 | 6.14 | 
8 | CNc1ncnc(N2CCN(c3ccn4cc(-c5cc(Cl)c(OC)cc5OC)nc4c3)CC2)n1 [Example 451, 4-(4-(2-(5-chloro-2,4-dimethoxyphenyl)imidazo[1,2-a]pyridin-7-yl)piperazin-1-yl)-N-methyl-1,3,5-triazin-2-amine] | 7.77 | 6.34 | 
9 | COc1cc(OC)c(-c2cn3ccc(N[C@H]4C[C@H]5CC[C@@H](C4)N5CC(C)(C)C)cc3n2)cc1Cl [Example 452, 2-(5-chloro-2,4-dimethoxyphenyl)-N-((1R,3r,5S)-8-neopentyl-8-azabicyclo[3.2.1]octan-3-yl)imidazo[1,2-a]pyridin-7-amine] | 7.37 | 6.08 | 
10 | COc1cc(OC)c(-c2cn3ccc(N4CCC(C(=O)NC5CCCCC5)CC4)cc3n2)cc1Cl [Example 453, 1-(2-(5-chloro-2,4-dimethoxyphenyl)imidazo[1,2-a]pyridin-7-yl)-N-cyclohexylpiperidine-4-carboxamide] | 7.98 | 6.27 | 
11 | COc1cc(OC)c(-c2cn3ccc(N4CCC[C@H](NCC5CCN(C(=O)OC(C)(C)C)CC5)C4)cc3n2)cc1Cl [Example 454, (S)-tert-butyl 4-(((1-(2-(5-chloro-2,4-dimethoxyphenyl)imidazo[1,2-a]pyridin-7-yl)piperidin-3-yl)amino)methyl)piperidine-1-carboxylate] | 7.57 | 6.12 | 
12 | COc1cc(OC)c(-c2cn3ccc(N4CCC[C@H](NCC5CCCCC5)C4)cc3n2)cc1Cl [Example 455, (S)-1-(2-(5-chloro-2,4-dimethoxyphenyl)imidazo[1,2-a]pyridin-7-yl)-N-(cyclohexylmethyl)piperidin-3-amine] | 7.91 | 6.04 | 
13 | COc1cc(OC)c(-c2cn3ccc(N4CCC(C(=O)Nc5ccccc5)CC4)cc3n2)cc1Cl [Example 456, 1-(2-(5-chloro-2,4-dimethoxyphenyl)imidazo[1,2-a]pyridin-7-yl)-N-phenylpiperidine-4-carboxamide] | 7.59 | 6.20 | 
14 | COc1cc(OC)c(-c2cn3ccc(N[C@H]4C[C@H]5CC[C@@H](C4)N5C(=O)c4ccccc4)cc3n2)cc1Cl [Example 457, ((1R,3r,5S)-3-((2-(5-chloro-2,4-dimethoxyphenyl)imidazo[1,2-a]pyridin-7-yl)amino)-8-azabicyclo[3.2.1]octan-8-yl)(phenyl)methanone] | 7.46 | 6.09 | 
15 | CNC1CCN(c2cnc(N3CCN(c4ccn5cc(-c6cc(Cl)c(OC)cc6OC)nc5c4)CC3)nc2)CC1 [Example 458, 1-(2-(4-(2-(5-chloro-2,4-dimethoxyphenyl)imidazo[1,2-a]pyridin-7-yl)piperazin-1-yl)pyrimidin-5-yl)-N-methylpiperidin-4-amine] | 7.76 | 6.38 | 
16 | COc1cc(OC)c(-c2cn3ccc(N4CCC(CNC(=O)OC(C)(C)C)C4)cc3n2)cc1Cl (stereo not drawn) [Example 459, tert-butyl ((1-(2-(5-chloro-2,4-dimethoxyphenyl)imidazo[1,2-a]pyridin-7-yl)pyrrolidin-3-yl)methyl)carbamate] | 8.11 | 6.00 | 
17 | COc1cc(OC)c(-c2cn3ccc(N4CCC(C(=O)NC5CCN(C(=O)OC(C)(C)C)CC5)CC4)cc3n2)cc1Cl [Example 460, tert-butyl 4-(1-(2-(5-chloro-2,4-dimethoxyphenyl)imidazo[1,2-a]pyridin-7-yl)piperidine-4-carboxamido)piperidine-1-carboxylate] | 7.68 | 6.16 | 

— US10508109B2 (priority 2015, dated 2019)
